Holding throughout (type): cell-based
The test system of one test is DU-145. As to the kind of experiment: Cell growth inhibition assay, prostate cancer cell line DU-145. The following applies: Homo sapiens, DU-145 prostate cancer cell line. The method, then:
(§1) The inhibitory effects of the compounds of the present invention against the growth of cancer cells were evaluated as shown below. The cancer cell lines including stomach cancer cell line (AGS), breast cancer cell lines (MDA-MB-231, MDA-MB-468, and BT-549), prostate cancer cell lines (LNCaP and DU-145), colon cancer cell line (HCT116), ovarian cancer cell line (SW626), liver cancer cell line (Hep3B), kidney cancer cell line (ACHN), lung cancer cell line (NCI-H23) and blood cancer cell lines (HEL92.1.7 and U266) were cultured under the protocol provided by each supplier. A medium supplemented with 10 ng/mL of IL-6 was used for LNCaP, a prostate cancer cell line, when treated with a drug. Each type of cells to be used in experiments were sub-cultured in a 96-well plate by counting the exact number of cells using Tali™ Image-based Cytometer (Life Technologies). In a 96-well plate, AGS, HCT116, and DU-145 were employed with 3,000 cells/well; NCI-H23, SW626, Hep3B, ACHN, BT-549, MDA-MB-231, HEL92.1.7, and U266 were employed with 5,000 cells/well; and LNCaP and MDA-MB-468 were employed with 10,000 cells/well. The cells were treated with the compounds listed in Examples which were diluted in various concentrations. Upon completion of the compounds treatment, AGS, HCT116, SW626, DU145, NCI-H23, Hep3B, ACHN, BT-549, LNCaP, HEL92.1.7, and U266 cells were cultured at 37° C. under 5% CO2 for from 72 to 96 hours, and MDA-MB-231 and MDA-MB-468 cells were cultured at 37° C. in air for from 72 to 96 hours. Subsequently, the cells were observed under microscope and drug precipitation and particular findings were investigated and recorded. And then, the 96-well plate was placed at room temperature for 30 minutes, added with 20 μL/well of CellTiter-Glo solution (Cat No. G7573, Promega) and shaken for 10 minutes, followed by being subjected to the measurement using PHERAstar™ microplate reader (BMG LABTECH) according to the supplier's general luminometer protocol. Wells where only culture liquid added without cell plating were used as a negative control, whereas wells where culture liquid containing 0.1% DMSO instead of the compounds listed in Examples were used as a positive control.

A further test has as its system LNCaP. The experiment in a line: Cell growth inhibition assay, prostate cancer cell line LNCaP (medium with 10 ng/mL IL-6). The following applies: Homo sapiens, medium supplemented with 10 ng/mL of IL-6, 10,000 cells/well. On the procedure: as §1
In another test the target is T1, STAT3 (Homo sapiens, UniProt P40763).
T1 construct: plasmid pSTAT3-TA-luc), which contains a stably operating STAT3 promoter; endogenous in cells
T1 sequence (P40763 whole entry): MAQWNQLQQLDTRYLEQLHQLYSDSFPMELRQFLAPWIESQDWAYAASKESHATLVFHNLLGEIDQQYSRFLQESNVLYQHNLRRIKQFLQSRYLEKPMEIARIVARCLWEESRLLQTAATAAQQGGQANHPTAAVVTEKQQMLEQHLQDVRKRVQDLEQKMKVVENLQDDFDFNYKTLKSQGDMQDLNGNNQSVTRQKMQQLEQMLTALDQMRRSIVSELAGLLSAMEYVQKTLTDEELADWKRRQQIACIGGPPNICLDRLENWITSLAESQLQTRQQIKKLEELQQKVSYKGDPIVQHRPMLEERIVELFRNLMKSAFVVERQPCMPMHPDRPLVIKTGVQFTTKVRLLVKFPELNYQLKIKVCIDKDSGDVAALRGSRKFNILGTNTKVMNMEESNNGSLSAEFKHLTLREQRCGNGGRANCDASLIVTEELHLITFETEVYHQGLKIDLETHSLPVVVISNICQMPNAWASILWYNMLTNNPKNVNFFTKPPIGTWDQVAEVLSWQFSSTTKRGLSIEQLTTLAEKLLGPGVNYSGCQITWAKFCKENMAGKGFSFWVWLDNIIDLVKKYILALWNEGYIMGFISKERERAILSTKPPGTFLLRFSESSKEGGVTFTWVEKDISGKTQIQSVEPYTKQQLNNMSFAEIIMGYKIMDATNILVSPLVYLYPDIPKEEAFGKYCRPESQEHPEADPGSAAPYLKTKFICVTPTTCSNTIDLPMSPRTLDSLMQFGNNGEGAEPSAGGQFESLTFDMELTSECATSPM
As to the kind of experiment: STAT3 reporter gene assay (luciferase), LNCaP stable cell line (pSTAT3-TA-luc), IL-6 stimulation. The method, then:
1-1) Experiment on the Inhibition of STAT3 Activity
A human prostate cancer cell line (LNCaP stable cell line; plasmid pSTAT3-TA-luc), which contains a stably operating STAT3 promoter, was cultured in RPMI1640 medium (Cat No. 11875, Life Technologies) containing 10% fetal bovine serum (FBS) (Cat No. SH30396, Thermo Scientific) and 150 μg/mL G-418 solution (Cat No. 04 727 894 001, Roche). The reporter gene assay using LNCaP stable cell line was performed in RPMI1640 medium containing 3% DCC-FBS without G-418 solution. LNCaP stable cells were plated in two (2) white 96-well plates with 30,000 cells/50 μL in each well. The cells were cultured at 37° C., under 5% CO2 for 24 hours, and then treated with the compounds listed in Examples which were diluted in various concentrations. Subsequently, IL-6 was added to each well with a final concentration of 10 ng/mL. Upon completion of the treatment with the compounds and IL-6, the cells were cultured at 37° C., under 5% CO2 for from 24 to 48 hours. The plates were observed under microscope and drug precipitation and particular findings were investigated and recorded.
The luciferase assay and the cell viability assay were performed respectively with one of the two plates. For the luciferase assay, the liquid media in the 96-well plate was removed, and then, 20 μL of passive cell lysis buffer was added to each well. After shaking the plate for 30 minutes, luciferase activities of each well were measured in a PHERAstar™ microplate reader (BMG LABTECH) using a luciferase assay system (Cat No. E1501, Promega). For the cell viability assay, the 96-well plate was placed at room temperature for 30 minutes, added with 20 μL/well of CellTiter-Glo solution (Cat No. G7573, Promega), and shaken for 10 minutes in order to measure cytotoxicity caused by the compounds listed in Examples with a PHERAstar™ microplate reader (BMG LABTECH). Wells without 0.1% DMSO and stimulation were used as a negative control and wells with 0.1% DMSO and stimulation were used as a positive control.

Each structure is given as a SMILES string. Bounds are passed on as bounds.

On to `C=CCOc1cc(OC(F)(F)F)cc(C(C)(C)c2cc(Cl)cc(NC(=O)c3cc4cc(NS(C)(=O)=O)ccc4s3)c2)c1` [Example 78, N-(3-(2-(3-(allyloxy)-5-(trifluoromethoxy)phenyl)propan-2-yl)-5-chlorophenyl)-5-(methylsulfonamido)benzo[b]thiophene-2-carboxamide], for which the IC50 (as a rule, the concentration needed to halve the response being measured) with DU-145 was found to be 0.009 µM; in the test with LNCaP, 0.038 µM; at STAT3, 0.017 µM.
`CC(C)(c1cc(Cl)cc(NC(=O)c2cc3cc(NS(C)(=O)=O)ccc3s2)c1)c1cc(OC2CC2)cc(OC(F)(F)F)c1` [Example 79, N-(3-chloro-5-(2-(3-cyclopropoxy-5-(trifluoromethoxy)phenyl)propan-2-yl)phenyl)-5-(methylsulfonamido)benzo[b]thiophene-2-carboxamide]: the IC50 was 0.008 µM with DU-145, 0.039 µM in the test on LNCaP and 0.014 µM on STAT3.
The like results for `COc1cc(OC(F)(F)F)cc(C(C)(C)c2cc(Br)cc(NC(=O)c3cc4cc(NS(C)(=O)=O)ncc4[nH]3)c2)c1` [Example 99, N-(3-bromo-5-(2-(3-methoxy-5-(trifluoromethoxy)phenyl)propan-2-yl)phenyl)-5-(methylsulfonamido)-1H-pyrrolo[2,3-c]pyridine-2-carboxamide 2,2,2-trifluoroacetate] were, in that order, 0.8 µM, 1.5 µM and 0.22 µM.
The like results for `CC(C)Oc1cc(OC(F)(F)F)cc(C(C)(C)c2cc(Cl)cc(NC(=O)c3cc4ccc(NS(C)(=O)=O)nc4[nH]3)c2)c1` [Example 100, N-(3-chloro-5-(2-(3-isopropoxy-5-(trifluoromethoxy)phenyl)propan-2-yl)phenyl)-6-(methylsulfonamido)-1H-pyrrolo[2,3-b]pyridine-2-carboxamide] were, in that order, 0.33 µM, above 10 µM and 0.042 µM.
`CC(C)Oc1cc(OC(F)(F)F)cc(C(C)(C)c2cc(Cl)cc(NC(=O)c3cc4cnc(NS(C)(=O)=O)cc4[nH]3)c2)c1` [Example 101, N-(3-chloro-5-(2-(3-isopropoxy-5-(trifluoromethoxy)phenyl)propan-2-yl)phenyl)-6-(methylsulfonamido)-1H-pyrrolo[3,2-c]pyridine-2-carboxamide]: the IC50 with DU-145 stood at 0.44 µM; with LNCaP, 1.1 µM; on STAT3 it was 0.28 µM.
For the compound `CC(C)Oc1cc(OC(F)(F)F)cc(C(C)(C)c2cc(Cl)cc(NC(=O)c3cc4c(s3)CCN(NS(C)(=O)=O)C4)c2)c1` [Example 104, N-(3-chloro-5-(2-(3-isopropoxy-5-(trifluoromethoxy)phenyl)propan-2-yl)phenyl)-5-(methylsulfonamido)-4,5,6,7-tetrahydrothieno[3,2-c]pyridine-2-carboxamide], the IC50 stood at 0.58 µM in the test with DU-145, 0.42 µM in the test on LNCaP and 0.224 µM on STAT3.
Turning to `CC(C)Oc1cc(OC(F)(F)F)cc(C(C)(C)c2cc(Cl)cc(NC(=O)c3cc4cc(NS(C)(=O)=O)c(Cl)cc4s3)c2)c1` [Example 105, 6-chloro-N-(3-chloro-5-(2-(3-isopropoxy-5-(trifluoromethoxy)phenyl)propan-2-yl)phenyl)-5-(methylsulfonamido)benzo[b]thiophene-2-carboxamide], the IC50 in the test on DU-145 amounted to 0.001 µM; in the test with LNCaP it was 0.002 µM; at STAT3, 0.005 µM.
For `COc1cccc(C(C)(C)c2cc(Cl)cc(NC(=O)c3cc4cc(NS(C)(=O)=O)ccc4s3)c2)c1` [Example 106, N-(3-chloro-5-(2-(3-methoxyphenyl)propan-2-yl)phenyl)-5-(methylsulfonamido)benzo[b]thiophene-2-carboxamide] the same measures were 0.031 µM, 0.11 µM and 0.52 µM.
The like results for `CC#Cc1cc(OC(F)(F)F)cc(C(C)(C)c2cc(Cl)cc(NC(=O)c3cc4cc(NS(C)(=O)=O)ccc4s3)c2)c1` [Example 114, N-(3-chloro-5-(2-(3-(prop-1-yn-1-yl)-5-(trifluoromethoxy)phenyl)propan-2-yl)phenyl)-5-(methylsulfonamido)benzo[b]thiophene-2-carboxamide] were, in that order, 0.014 µM, 0.061 µM and 0.02 µM.
Regarding `CC(C)(c1cccc(Cn2ccnc2)c1)c1cc(Br)cc(NC(=O)c2cc3cc(NS(C)(=O)=O)ccc3s2)c1` [Example 120, N-(3-(2-(3-((1H-imidazol-1-yl)methyl)phenyl)propan-2-yl)-5-bromophenyl)-5-(methylsulfonamido)benzo[b]thiophene-2-carboxamide], the IC50 in the test on DU-145 was 2.2 µM; with LNCaP it was 3.6 µM; against STAT3, 0.66 µM.
The like results for `CC(C)Oc1cc(CN2CCNCC2)cc(C(C)(C)c2cc(Br)cc(NC(=O)c3cc4cc(NS(C)(=O)=O)ccc4s3)c2)c1` [Example 124, N-(3-bromo-5-(2-(3-isopropoxy-5-(piperazin-1-ylmethyl)phenyl)propan-2-yl)phenyl)-5-(methylsulfonamido)benzo[b]thiophene-2-carboxamide] were, in that order, 2.1 µM, 6.5 µM and 4 µM.
On to `CC(C)Oc1cc(CN2CCCC2)cc(C(C)(C)c2cc(Cl)cc(NC(=O)c3cc4cc(NS(C)(=O)=O)ccc4s3)c2)c1` [Example 125, N-(3-chloro-5-(2-(3-isopropoxy-5-(pyrrolidin-1-ylmethyl)phenyl)propan-2-yl)phenyl)-5-(methylsulfonamido)benzo[b]thiophene-2-carboxamide], for which the half-inhibitory concentration (IC50) came out at 0.46 µM in the test with DU-145, 2.1 µM in the test with LNCaP and 0.89 µM at STAT3.
As to `CC(C)Oc1cc(CN2CCOCC2)cc(C(C)(C)c2cc(Cl)cc(NC(=O)c3cc4cc(NS(C)(=O)=O)ccc4s3)c2)c1` [Example 126, N-(3-chloro-5-(2-(3-isopropoxy-5-(morpholinomethyl)phenyl)propan-2-yl)phenyl)-5-(methylsulfonamido)benzo[b]thiophene-2-carboxamide], the concentration for half-maximal inhibition (IC50) with DU-145 was found to be 0.11 µM; in the test with LNCaP it was 0.11 µM; at STAT3, 0.1 µM.
Consider `CC(C)Oc1cc(CN2CCN(S(C)(=O)=O)CC2)cc(C(C)(C)c2cc(Cl)cc(NC(=O)c3cc4cc(NS(C)(=O)=O)ccc4s3)c2)c1` [Example 128, N-(3-chloro-5-(2-(3-isopropoxy-5-((4-(methylsulfonyl)piperazin-1-yl)methyl)phenyl)propan-2-yl)phenyl)-5-(methylsulfonamido)benzo[b]thiophene-2-carboxamide], for which the IC50 with DU-145 worked out at 0.15 µM; with LNCaP, 0.41 µM; against STAT3, 0.27 µM.
The like results for `CC(C)Oc1cc(CN2CCN(S(=O)(=O)N(C)C)CC2)cc(C(C)(C)c2cc(Cl)cc(NC(=O)c3cc4cc(NS(C)(=O)=O)ccc4s3)c2)c1` [Example 131, N-(3-chloro-5-(2-(3-((4-(N,N-dimethylsulfamoyl)piperazin-1-yl)methyl)-5-isopropoxyphenyl)propan-2-yl)phenyl)-5-(methylsulfonamido)benzo[b]thiophene-2-carboxamide] were, in that order, 0.1 µM, 0.26 µM and 0.085 µM.

Values taken from US10562912B2 (C&C Research Laboratories, priority 2013, dated 2020).
